# Structures can show the parent of a compound that is named as a salt.
# Test: collision cross section in nitrogen (drift tube, single-field); higher = larger gas-phase ion size
# [1] = ion type: [M+Na], ion source: ESI, ion mode: Positive
# [2] = ion type: [M+H], ion source: APCI, ion mode: Positive
# [3] = ion type: [M+H], ion source: ESI, ion mode: Positive
# [4] = ion type: [M-H], ion source: ESI, ion mode: Negative
# [5] = ion type: [M+], ion source: APCI, ion mode: Positive
# 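Note: chemical standards at 10 µM analysed by drift tube IMS-QTOF MS in about 3.95 torr nitrogen, mean of duplicate injections differing ≤1%, mass error below 10 ppm.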
SMILES,collision cross section in nitrogen [3],collision cross section in nitrogen [4],further results
C=CC(=O)OCCOCCOCC [2-(2-Ethoxyethoxy)ethyl acrylate],,,collision cross section in nitrogen [1]: 142.6 Å²
OCCc1ccccn1 [2-(2-Pyridyl)ethanol],121.2 Å²,,collision cross section in nitrogen [2]: 120.7 Å²
Cc1ccc(O)c(-n2nc3ccccc3n2)c1 [2-(2H-Benzotriazol-2-yl)-4-methylphenol],,155.4 Å²,
CCC(C)c1cc(C(C)(C)C)cc(-n2nc3ccccc3n2)c1O (stereo not drawn) [2-(2H-Benzotriazol-2-yl)-6-(butan-2-yl)-4-tert-butylphenol],,192.5 Å²,collision cross section in nitrogen [2]: 187.2 Å²
c1ccc(CCCc2ccccn2)cc1 [2-(3-Phenylpropyl)pyridine],141.1 Å²,,collision cross section in nitrogen [2]: 140.8 Å²
Cc1ccc2nc(-c3ccc(N)cc3)sc2c1S(=O)(=O)O [2-(4-Aminophenyl)-6-methylbenzothiazole sulfonic acid],171.7 Å²,174.2 Å²,collision cross section in nitrogen [1]: 185.9 Å²
Cc1cc(Cl)ccc1OCC(=O)O [2-(4-Chloro-2-methylphenoxy)acetic acid],,146.1 Å²,
"Cc1ccc(-c2nc3ccccc3o2)cc1 [2-(4-Methylphenyl)-1,3-benzoxazole]",145.5 Å²,,collision cross section in nitrogen [2]: 145.3 Å²
CC(C)(C)c1ccc(OC2CCCCC2O)cc1 (stereo not drawn) [2-(4-tert-Butylphenoxy)cyclohexanol],,,collision cross section in nitrogen [1]: 179.8 Å²
CCCCCCCCC=CCCCCCCCC1=NCCN1CCO [2-(8-Heptadecenyl)-2-imidazoline-1-ethanol],199.8 Å²,196.6 Å²,collision cross section in nitrogen [2]: 199.3 Å²
CN(C)Cc1ccccc1O [2-((Dimethylamino)methyl)phenol],162.2 Å²,,
C=C(C)C(=O)OCCOC(=O)CC(C)=O [2-(Methacryloyloxy)ethyl acetoacetate],,,collision cross section in nitrogen [1]: 147.6 Å²
CCN(CCO)c1cccc(C)c1 [2-(N-Ethyl-m-toluidino)ethanol],140.6 Å²,,collision cross section in nitrogen [2]: 140 Å²
Nc1ccccc1S(=O)(=O)c1ccccc1 [2-(Phenylsulfonyl)aniline],,151.8 Å²,
OCCc1ccncc1 [2-(Pyridin-4-yl)ethanol],124.3 Å²,,collision cross section in nitrogen [2]: 124.6 Å²
C=CC(=O)NC(C)(C)CS(=O)(=O)O [2-Acrylamido-2-methyl-1-propanesulfonic acid],,141.5 Å²,
C=CCOCC(CC)(CO)CO [2-Allyloxymethyl-2-ethylpropanediol],,,collision cross section in nitrogen [1]: 141.3 Å²
C=CCc1ccccc1O [2-Allylphenol],,128.1 Å²,
"Cc1cc(C)nc(N)n1 [2-Amino-4,6-dimethylpyrimidine]",123 Å²,,collision cross section in nitrogen [2]: 123.7 Å²
"COc1nc(C)nc(N)n1 [2-Amino-4-methoxy-6-methyl-1,3,5-triazine]",123.4 Å²,,collision cross section in nitrogen [2]: 122.7 Å²
"Nc1nnc(-c2ccc([N+](=O)[O-])o2)o1 [2-Amino-5-(5-nitro-2-furyl)-1,3,4-oxadiazole]",,135.3 Å²,
Nc1ccc(Cl)cc1C(=O)c1ccccc1 [2-Amino-5-chlorobenzophenone],,150.4 Å²,
Cc1ccc(N)c(S(=O)(=O)O)c1 [2-Amino-5-methylbenzenesulfonic acid],,137.9 Å²,
N#Cc1cc([N+](=O)[O-])ccc1N [2-Amino-5-nitrobenzonitrile],,125.1 Å²,

SMILES,collision cross section in nitrogen [3],collision cross section in nitrogen [4],further results
Nc1ccc([N+](=O)[O-])cc1O [2-Amino-5-nitrophenol],,125.3 Å²,
Nc1cc([N+](=O)[O-])cc(Cl)c1O [2-Amino-6-chloro-4-nitrophenol],,130.1 Å²,
Nc1nc2ccc([N+](=O)[O-])cc2s1 [2-Amino-6-nitrobenzothiazole],143.6 Å²,131.3 Å²,collision cross section in nitrogen [2]: 144.1 Å²
CC(C)NC(=O)c1ccccc1N [2-Amino-N-(1-methylethyl)benzamide],,140.8 Å²,
CN(C1CCCCC1)S(=O)(=O)c1ccccc1N [2-Amino-N-cyclohexyl-N-methylbenzenesulfonamide],,,collision cross section in nitrogen [1]: 173.9 Å²
Nc1ccc2c(c1)C(=O)c1ccccc1C2=O [2-Aminoanthraquinone],,144.9 Å²,
"Nc1cc(S(=O)(=O)O)ccc1S(=O)(=O)O [2-Aminobenzene-1,4-disulfonic acid]",,147.3 Å²,
Nc1nc2ccccc2[nH]1 [2-Aminobenzimidazole],126.8 Å²,123.5 Å²,collision cross section in nitrogen [2]: 126.2 Å²; collision cross section in nitrogen [5]: 123.9 Å²
N#Cc1ccccc1N [2-Aminobenzonitrile],,118 Å²,
NCCOS(=O)(=O)O [2-Aminoethyl hydrogen sulfate],,121.6 Å²,
Oc1ccccc1Br [2-Bromophenol],,120.2 Å²,
"CCCCCCCCOC(=O)/C=C\C(=O)OCCCCCCCC [2-Butenedioic acid (2Z)-, dioctyl ester]",,,collision cross section in nitrogen [1]: 206.4 Å²
"Nc1ccc(N)c(Cl)c1 [2-Chloro-1,4-diaminobenzene sulfate (1:1)]",131.4 Å²,,
Nc1ccc([N+](=O)[O-])cc1Cl [2-Chloro-4-nitroaniline],,126.1 Å²,
O=C(Nc1ccccc1)c1cc([N+](=O)[O-])ccc1Cl [2-Chloro-5-nitro-N-phenylbenzamide],,159.9 Å²,
Nc1cc([N+](=O)[O-])ccc1Cl [2-Chloro-5-nitroaniline],,125.5 Å²,
Cc1cc(Br)ccc1NC(=O)CCl [2-Chloro-N-(2-methyl-4-bromophenyl)acetamide],,146 Å²,
NS(=O)(=O)c1ccccc1Cl [2-Chlorobenzenesulfonamide],,133.5 Å²,
CCC(C)(CC)C(=O)O [2-Ethyl-2-methylbutyric acid],,130.5 Å²,
CCc1nc(C)c[nH]1 [2-Ethyl-4-methyl-1H-imidazole],121.2 Å²,,collision cross section in nitrogen [2]: 120.3 Å²
CCC(CC)C(=O)O [2-Ethylbutyric acid],,127.6 Å²,
CCCCC(CC)C(=O)O (stereo not drawn) [2-Ethylhexanoic acid],,138.1 Å²,
CCCCC(CC)COP(=O)(O)O (stereo not drawn) [2-Ethylhexyl dihydrogen phosphate],,150.7 Å²,
CCCCC(CC)COP(=O)(Oc1ccccc1)Oc1ccccc1 (stereo not drawn) [2-Ethylhexyl diphenyl phosphate],,,collision cross section in nitrogen [1]: 200.9 Å²

SMILES,collision cross section in nitrogen [3],collision cross section in nitrogen [4],further results
CCCCC(CC)COC(=O)c1ccc(O)cc1 (stereo not drawn) [2-Ethylhexyl p-hydroxybenzoate],,169.9 Å²,
CCc1ccccc1O [2-Ethylphenol],,124.3 Å²,
CCCCCCCCC(CCCCCC)C(=O)O (stereo not drawn) [2-Hexyldecanoic acid],,176.7 Å²,
NNc1nc(-c2ccc(N)cc2)cs1 [2-Hydrazino-4-(4-aminophenyl) thiazole],146.2 Å²,,
NNc1nc(-c2ccc([N+](=O)[O-])cc2)cs1 [2-Hydrazino-4-(4-nitrophenyl)thiazole],,149 Å²,
COc1ccc(C(=O)c2ccccc2)c(O)c1 [2-Hydroxy-4-methoxybenzophenone],,152.9 Å²,collision cross section in nitrogen [2]: 147.3 Å²
CC(=O)Nc1ccccc1O [2-Hydroxyacetanilide],,130.2 Å²,
O=C(c1ccccc1)c1ccccc1O [2-Hydroxybenzophenone],,143.4 Å²,
Oc1ccc2c(c1)Cc1ccccc1-2 [2-Hydroxyfluorene],,141.5 Å²,
Oc1ccccc1I [2-Iodophenol],,121.9 Å²,
Cc1cc(=O)nc(C(C)C)[nH]1 [2-Isopropyl-6-methyl-4-pyrimidone],132.5 Å²,135.5 Å²,collision cross section in nitrogen [2]: 133.9 Å²; collision cross section in nitrogen [1]: 146.4 Å²
CC(C)c1ccccc1O [2-Isopropylphenol],,129.3 Å²,
CC(C)c1ccc2sc3ccccc3c(=O)c2c1 [2-Isopropylthioxanthone],156.4 Å²,,collision cross section in nitrogen [2]: 155.5 Å²
"CC(C)CC(=O)C1C(=O)c2ccccc2C1=O [2-Isovaleryl-1,3-indanedione]",,154.2 Å²,
S=c1[nH]c2ccccc2[nH]1 [2-Mercaptobenzimidazole],127.8 Å²,127.1 Å²,collision cross section in nitrogen [2]: 128 Å²; collision cross section in nitrogen [5]: 125.7 Å²
Sc1nc2ccccc2s1 [2-Mercaptobenzothiazole],,128.2 Å²,
COc1ccccc1C=O [2-Methoxybenzaldehyde],,,collision cross section in nitrogen [5]: 124.1 Å²
"Cc1c(O)cccc1O [2-Methyl-1,3-benzenediol]",,123.6 Å²,
Cn1sccc1=O [2-Methyl-3(2H)-isothiazolone],117.9 Å²,,collision cross section in nitrogen [2]: 117.1 Å²
Cn1sccc1=O [2-Methyl-3-isothiazolone hydrochloride],118.5 Å²,,
CSc1ccc(C(=O)C(C)(C)N2CCOCC2)cc1 [2-Methyl-4'-(methylthio)-2-morpholinopropiophenone],166.7 Å²,,collision cross section in nitrogen [2]: 166.4 Å²
"CCCCCCCCSCc1cc(C)c(O)c(CSCCCCCCCC)c1 [2-Methyl-4,6-bis[(octylthio)methyl]phenol]",,208 Å²,

# — the supplement of paper PMC12317010
